Several values for one entry are separate records, joined by “and”; a condition that tells them apart may be missing. Equal entries are not always repeated. Where two headings read alike, the source gives them in different places.
Columns and labels:
[1] = Phase 1 clinical trial, Part II, muscle biopsy: concentration in quadriceps muscle; type: in vivo, human (healthy male volunteers); details: for Kp (total muscle concentration divided by plasma concentration) / Kp: muscle Day 13 / plasma Day 14 at 3 hours post dose, geom. mean (geom. % CV); for Kp: quadriceps muscle / plasma, read-out: Kpu (unbound muscle concentration divided by plasma concentration)
Experimental: For Study part II (for all groups), Concentrations of Compound I were determined in muscle by performing muscle biopsy on quadriceps muscle on day 13, at least 3 hours after morning dose. Plasma and muscle samples were analyzed by LC-MS/MS method. Muscle biopsy was performed to assess the concentration of Compound I in quadriceps muscle. The biopsy was performed on Day 13 at 3 hours post dose at least. Table 9 summarizes the ratios of unbound respective total concentration at Day 13 at 3 hours post dose divided by the plasma concentration on Day 14 at 3 hours post dose.

[2] = Phase 1b study in RYR1-Related Myopathy patients, plasma pharmacokinetics; type: in vivo, human (RYR1-Related Myopathy patients); details: for Ctrough_D13 / concentration at 13 day: Day 13 trough; for concentration at 13 day: read-out: Ctrough_D13; for AUC(0-inf): read-out: AUC0-inf
Experimental: A Phase 1b study is performed in RYR1-Related Myopathy (RYR1-RM) affected individuals. Compound I was administered in a gastro-resistant tablet according to Example 3 at daily doses. The formulation comprised 20 mg Compound I (based on the mass of 4-[(7-methoxy-2,3-dihydro-1,4-benzothiazepin-4(5H)yl)methyl]benzoic acid). The first three participants were dosed with 120 mg of Compound I (6×20 mg tablets) daily for approximately 28 days. The second group was dosed with 200 mg of Compound I (10×20 mg tablets daily for approximately 28 days. Bloods for PK assessments were at baseline (Day 0, 24h PK), at the study mid-point (day 14±2 days, trough PK), and at the final study visit (day 28, 24h PK). Pharmacokinetic analysis was performed on plasma samples. PK parameters are set forth below: [table]

[3] = 120 mg oral daily for 28 days, Day 28, n 3, Max
[4] = 120 mg oral daily for 28 days, Day 28, n 3, Median
[5] = 120 mg oral daily for 28 days, Day 28, n 3, Min
[6] = 120 mg oral daily for 28 days, Day 28, n 3, arithmetic mean
[7] = 120 mg oral daily for 28 days, Day 28, n 3, geometric mean
[8] = human, plasma, po, 120 mg, 120 mg oral daily for 28 days, Day 28, n 3, arithmetic mean
[9] = human, plasma, po, 120 mg, 120 mg oral daily for 28 days, Day 28, n 3, geometric mean

- Kp (total muscle concentration divided by plasma concentration) ([1]; 20 mg once daily): 0.0808 (65.3) (ng/g)/(ng/ml)
- Kp (total muscle concentration divided by plasma concentration) ([1]; 60 mg once daily): 0.0640 (22.6) (ng/g)/(ng/ml)
- Kp (total muscle concentration divided by plasma concentration) ([1]; 120 mg once daily): 0.0636 (49.9) (ng/g)/(ng/ml)
- Kp (total muscle concentration divided by plasma concentration) ([1]; 240 mg once daily): 0.0440 (30.0) (ng/g)/(ng/ml)
- Dose proportionality of median unbound and total concentrations in quadriceps muscle ([1]; 20-240 mg once daily): appeared dose proportional
- Kp, range of geometric mean ratios across doses ([1]; dose range 20-240 mg): 0.04-0.08 (ng/g)/(ng/mL)
- Kp at 3 h ([1]; male, human, quadriceps muscle (unbound) / plasma, oral, dose range 20-240 mg, read-out: Kpu, range of geometric mean ratios across doses): 0.0081 to 0.0106
- Kp ([1]; male, human, oral, 20 mg once daily): 0.0106
- Kp ([1]; male, human, oral, 60 mg once daily): 0.01
- Kp ([1]; male, human, oral, 120 mg once daily): 0.0081
- Kp ([1]; male, human, oral, 240 mg once daily): 0.0081
- AUC0-tau [2, 3]: 287 µg·h/mL
- Cmax, ss [2, 3]: 21300 ng/mL
- Cmin [2, 3]: 7760 ng/mL
- Tmax, ss [2, 3]: 6.00 h
- Tmin [2, 3]: 24.00 h
- Cmin [2, 4]: 7020 ng/mL
- Tmin [2, 4]: 24.000 h
- AUC0-tau [2, 5]: 243 µg·h/mL
- Cmax, ss [2, 5]: 16900 ng/mL
- Cmin [2, 5]: 5800 ng/mL
- Tmin [2, 5]: 1.00 h
- Cmin [2, 6]: 6860 ng/mL
- Tmin [2, 6]: 16.333 h
- Cmin [2, 7]: 6811 ng/mL
- Tmin [2, 7]: 8.320 h
- RA_AUC ([2]; 120 mg oral daily, AUCtau Day 28/AUC0-24 Day 1, n 3, Max): 1.64
- RA_AUC ([2]; 120 mg oral daily, AUCtau Day 28/AUC0-24 Day 1, n 3, Median): 1.618
- RA_AUC ([2]; 120 mg oral daily, AUCtau Day 28/AUC0-24 Day 1, n 3, Min): 1,50
- RA_AUC ([2]; 120 mg oral daily, AUCtau Day 28/AUC0-24 Day 1, n 3, arithmetic mean): 1.587
- RA_Cmax ([2]; 120 mg oral daily, Cmax Day 28/Cmax Day 1, n 3, Max): 1.72
- RA_Cmax ([2]; 120 mg oral daily, Cmax Day 28/Cmax Day 1, n 3, Median): 1.523
- RA_Cmax ([2]; 120 mg oral daily, Cmax Day 28/Cmax Day 1, n 3, Min): 1.21
- RA_Cmax ([2]; 120 mg oral daily, Cmax Day 28/Cmax Day 1, n 3, arithmetic mean): 1.485
- Ctrough_D13 ([2]; 120 mg oral daily, n 3, Median): 8040 ng/mL
- Ctrough_D13 ([2]; 120 mg oral daily, n 3, Min): 6710 ng/mL
- Ctrough_D13 ([2]; 120 mg oral daily, n 3, geometric mean): 7970 ng/mL
- Time of Cmin, individual values ([2]; 120 mg oral daily, Day 28, 1 for 1 subject, 24 for two subjects): 1 h and 24 h
- Tmax,ss, individual values ([2]; 120 mg oral daily, Day 28, 4 for two participants, 6 for the third subject): 6 h
- AUC ([2]; human, plasma, po, 120 mg, 120 mg oral daily for 28 days, Day 28, n 3, Median, read-out: AUC0-tau): 285 µg·h/mL
- Cmax ([2]; human, plasma, po, 120 mg, 120 mg oral daily for 28 days, Day 28, n 3, Median, read-out: Cmax, ss): 19800 ng/mL
- Tmax ([2]; human, plasma, po, 120 mg, 120 mg oral daily for 28 days, Day 28, n 3, Median, read-out: Tmax): 4 h
- Cmax at 28 days [2, 8]: 19300 ng/mL
- Tmax at 28 days [2, 8]: 4.67 h
- AUC ([2]; human, plasma, po, 120 mg, 120 mg oral daily for 28 days, Day 28, n 3, arithmetic mean, read-out: AUC0-tau): 272 µg·h/mL
- Cmax at 28 days [2, 9]: 19200 ng/mL
- Tmax at 28 days [2, 9]: 4.58 h
- AUC ([2]; human, plasma, po, 120 mg, 120 mg oral daily for 28 days, Day 28, n 3, geometric mean, read-out: AUC0-tau): ~271 µg·h/mL
- Cmax ([2]; human, plasma, po, 120 mg, 120 mg oral daily for 28 days, Day 28, n 3, geometric mean, read-out: Cmax, ss): ~19200 ng/mL
- concentration at 13 day ([2]; human, plasma, po, 120 mg, 120 mg oral daily, n 3, Max): 9400 ng/mL
- concentration at 13 day ([2]; human, plasma, po, 120 mg, 120 mg oral daily, n 3, arithmetic mean): 8050 ng/mL
- concentration at 13 day ([2]; human, plasma, po, 120 mg, 120 mg oral daily, n 3, geometric mean): 7970 ng/mL
- Tmax ([2]; human, plasma, po, 120 mg, 120 mg oral daily, Day 28, 4 for two participants, 6 for the third subject, read-out: Tmax,ss, individual values): 4 h
- AUC ([2]; human, plasma, po, 120 mg, 120 mg oral daily, Day 28, read-out: AUC0-tau, individual values): 243 to 287 µg·h/mL
- Cmax ([2]; human, plasma, po, 120 mg, 120 mg oral daily, Day 28, read-out: Cmax,ss, individual values): 16900 to 21300 ng/mL
- concentration at 28 day ([2]; human, plasma, po, 120 mg, 120 mg oral daily, Day 28, read-out: Cmin, individual values): 5800 to 7760 ng/mL
- AUC(0-t) ([2]; human, plasma, po, 120 mg, single oral 120 mg, Day 1, three subjects, Median, read-out: AUC0-24): 175 µg·h/mL
- AUC(0-inf) ([2]; human, plasma, po, 120 mg, single oral 120 mg, Day 1, three subjects, Median): 274 µg·h/mL
- AUC(0-t) ([2]; human, plasma, po, 120 mg, single oral 120 mg, Day 1, three subjects, Median, read-out: AUC0-t): 175 µg·h/mL
- Cmax ([2]; human, plasma, po, 120 mg, single oral 120 mg, Day 1, three subjects, Median, read-out: Cmax): 12400 ng/mL
- Tmax ([2]; human, plasma, po, 120 mg, single oral 120 mg, Day 1, three subjects, Median, read-out: Tmax): 3 h
- half-life ([2]; human, plasma, po, 120 mg, single oral 120 mg, Day 1, three subjects, Median, read-out: t½ (converted)): 14.4 h
- AUC(0-t) ([2]; human, plasma, po, 120 mg, single oral 120 mg, Day 1, three subjects, arithmetic mean, read-out: AUC0-24): 172 µg·h/mL
- AUC(0-inf) ([2]; human, plasma, po, 120 mg, single oral 120 mg, Day 1, three subjects, arithmetic mean): 259 µg·h/mL
- AUC(0-t) ([2]; human, plasma, po, 120 mg, single oral 120 mg, Day 1, three subjects, arithmetic mean, read-out: AUC0-t): 172 µg·h/mL
SMILES: COc1ccc2c(c1)CN(Cc1ccc(C(=O)O)cc1)CCS2.O=C(O)/C=C/C(=O)O [Compound I, 4-[(7-methoxy-2,3-dihydro-1,4-benzothiazepin-4(5H)yl)methyl]benzoic acid hemifumarate]
